Data set [1] can be described thus: Oil-water partitioning of propofol in equilibrated bulk excipient oil/water mixtures. Format: physicochemical. The settings on record: for Cfree: propofol in aqueous phase, 1 wt % drug. Here is the method: Oil-water partition coefficients were calculated by equilibrating a mixture of propofol, water, and oil with mass fractions fdrug, faq, and foil, respectively. The drug loading was kept constant at 1 wt %, while oil loadings were chosen to be 5 or 15 wt %. Additional experiments were performed at 10 wt % excipient oil loading for ethyl butyrate and soybean oil because of the major focus on these oils in this work. The water phase was separated and assayed for propofol concentration (cf), and the partition coefficient was obtained from a mass balance, i.e., Mdrug=Vaqcf+KVoilcf (2) where K is the oil-water partition coefficient, Mdrug, Vaq and Voil are the […] and volumes of water and oil, respectively in the system. The mass balance yields the following equation for K:
[formula] where ρaq and ρoil are the densities of water and oil, respectively. Table 2 lists the molecular weight and densities of various oils considered, along with measured aqueous phase drug concentrations and calculated logarithmic oil-water partition coefficients.

The nature of data set [2]: Creaming / visual shelf stability of emulsions (serum height). Format: physicochemical. The following applies: 10 wt % oil; for ability of the oil to yield stable emulsions: 1 wt % drug; for time to begin creaming: emulsions of 1 wt % propofol, 1 wt % Pluronic F68. The protocol:
About 10 mL of each emulsion was placed in a 20 mL vial and left undisturbed on a lab bench to explore each emulsion's stability to creaming. Creaming is an instability mechanism where lower density oil droplets rise to the top of the system forming a cream layer with a more clear serum layer below. The emulsions were photographed periodically with a digital camera (Panasonic DMC FH25), and the photographs were analyzed using image processing software (ImageJ) to quantify the degree of creaming. The height of each emulsion phase was measured in number of pixels, and the percentage serum was calculated from the serum height divided by the total emulsion height. The time at which creaming was first observed was used as a measure of each emulsion's stability, and the time at which the emulsion had completely creamed was noted if applicable. A creaming time longer than two years is desired to be considered a commercially viable pharmaceutical emulsion.
Preliminary screening of emulsion stability was conducted by leaving emulsions undisturbed on a shelf and making visual observations at various times. The initial images of the two formulations for each of the five excipient oils are included in the top row of FIG. 3.
Images of the emulsions were digitally measured to determine the serum height as a function of time for all the emulsion systems (FIG. 3). A stable system should not separate into cream and serum phases, so the time at which serum is first observed is considered to be an approximate indicator of the degree of stability.

Data set [3] is described as follows: Propofol partitioning in binary mixtures of excipient oils.
Protocol: Experiments were performed to measure the drug partitioning of binary mixtures of excipient oils. 1 wt % drug loading and 10 wt % total excipient oil loading were maintained as the experimental basis of all the binary systems formed to compare with Diprivan. The relative fractions of excipient oil were varied between 100 wt % ethyl butyrate and 100 wt % soybean oil. […] These experiments were repeated by replacing soybean oil with olive oil.
For data set [4] the following is noted: cited from earlier work.
The mark [5] stands for this setting: oil-water partition coefficient of propofol, 5% excipient oil.
[6] abbreviates: oil-water partition coefficient of propofol, 15% excipient oil.

This is an account of results in patent US11963936B2, “Method of manufacturing stable emulsions and compositions containing the same” (UNIVERSITY OF FLORIDA RESEARCH FOUNDATION, INC., priority 2013, dated 2024).

The structures appear in SMILES notation.

`CCCC(=O)OCC` [Ethyl butyrate (EB), Ethyl butyrate]: in data set [1] (oil-water partition coefficient of propofol), the “log(K)” value is 4.3. The Log10K in data set [1] (setting [5]) came to 4.33; in data set [1] (oil-water partition coefficient of propofol, 10% excipient oil), 4.32; in data set [1] (setting [6]), 4.35. Besides, the results for the Cfree in data set [1] (5% excipient oil), in data set [1] (10% excipient oil) and in data set [1] (15% excipient oil) were 6.93 mg/L, 4.60 ± 1.83 mg/L and 2.48 mg/L, respectively. Moreover, in data set [2], the “ability of the oil to yield stable emulsions” value (shortened to “ability of the oil”) was “did not yield stable emulsions”. In data set [3], the “partition coefficient of propofol compared to soybean oil” value is “about 4 fold”.

In the case of `CCCCCCCCCCCCCC(=O)OC(C)C` [Isopropyl myristate (IM), Isopropyl myristate], the Log10K in data set [1] (setting [5]) is recorded as 3.92; in data set [1] (setting [6]), 4.08. Further, the Cfree is recorded as 16.9 mg/L in data set [1] (5% excipient oil) and 4.39 mg/L in data set [1] (15% excipient oil). For the same compound, the “ability of the oil” value in data set [2] is given as “did not yield stable emulsions”. Further, in data set [2], the “time to begin creaming” value is “several days or weeks”.

For `CCCCCCCCCCCCCCCC(=O)OC(C)C` [Isopropyl palmitate (IP), Isopropyl palmitate], the results for the Log10K in data set [1] (setting [5]) and in data set [1] (setting [6]) were 3.71 and 4.01, respectively. Besides, the Cfree in data set [1] (5% excipient oil) amounted to 28.1 mg/L; in data set [1] (15% excipient oil), 5.17 mg/L. Besides, the “ability of the oil” value in data set [2] is “did not yield stable emulsions”. The “time to begin creaming” value in data set [2] is on record as “several days or weeks”.

For the compound `CCCCCCCC(=O)O` [Octanoic acid (OA), Octanoic acid], the Log10K in data set [1] (setting [5]) turned out to be 3.65; in data set [1] (setting [6]), 3.76. Moreover, the Cfree in data set [1] (5% excipient oil) was determined as 33.5 mg/L; in data set [1] (15% excipient oil), 10.0 mg/L. Also, in data set [2], the “ability of the oil” value is recorded as “did not yield stable emulsions”.

In the case of `CCCCCCCCCCCCCCCCCC(=O)O` [stearic acid], in data set [4], the pKa result was “about 4.9”.
